From ChEMBL document CHEMBL1201862, “PubChem BioAssay data set” (2004)
Calls of active or inactive are those of the source.

target: FAD-linked sulfhydryl oxidase ALR (Homo sapiens, UniProt P55789); experiment: inhibitors of human ALR sulfhydryl oxidase, dose response, biochemical, H2O2 detection, luminescence, cherry-pick (AID 493248); conditions: not given
Sequence (P55789 whole entry): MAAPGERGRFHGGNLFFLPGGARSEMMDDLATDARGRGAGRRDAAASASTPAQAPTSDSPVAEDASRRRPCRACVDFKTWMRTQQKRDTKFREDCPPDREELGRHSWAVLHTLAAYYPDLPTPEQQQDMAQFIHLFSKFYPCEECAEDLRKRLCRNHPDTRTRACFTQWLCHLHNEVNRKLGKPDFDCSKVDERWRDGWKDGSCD

Question: For `O=C(NNC(=O)c1ccccc1O)c1ccc(Cl)c(S(=O)(=O)N2CCCCC2)c1`, which AC50 is on record?
Answer: Its AC50 is 56.4 µM (active).

Question: For `CN(C)c1ccc(/C=N/NC(=O)CCc2c[nH]c3ccccc23)cc1`, which AC50 is on record?
Answer: Its AC50 is 2.11 µM (active).

Question: With `COc1cccc(N2C(=O)CC(N3CCc4ccccc43)C2=O)c1` (centres undefined) as the compound, how does the AC50 read?
Answer: The AC50 was 1.21 µM (active).

Question: For `O=C(c1cccc(F)c1)N1CCC(c2nc3ccccc3s2)CC1`, which AC50 is on record?
Answer: The AC50 was 0.433 µM (active).

target: T1, Polyadenylate-binding protein 1 (Homo sapiens, UniProt P11940); experiment: PABP1 MLLE–PAM2 interaction inhibitors, dose response, miRNA deadenylation inhibitor project, biochemical, fluorescence polarization, Cy5-PAM2 peptide, secondary (AID 602260); assay type: functional; conditions: read-out: IC50_Mean
T1 sequence (P11940 whole entry): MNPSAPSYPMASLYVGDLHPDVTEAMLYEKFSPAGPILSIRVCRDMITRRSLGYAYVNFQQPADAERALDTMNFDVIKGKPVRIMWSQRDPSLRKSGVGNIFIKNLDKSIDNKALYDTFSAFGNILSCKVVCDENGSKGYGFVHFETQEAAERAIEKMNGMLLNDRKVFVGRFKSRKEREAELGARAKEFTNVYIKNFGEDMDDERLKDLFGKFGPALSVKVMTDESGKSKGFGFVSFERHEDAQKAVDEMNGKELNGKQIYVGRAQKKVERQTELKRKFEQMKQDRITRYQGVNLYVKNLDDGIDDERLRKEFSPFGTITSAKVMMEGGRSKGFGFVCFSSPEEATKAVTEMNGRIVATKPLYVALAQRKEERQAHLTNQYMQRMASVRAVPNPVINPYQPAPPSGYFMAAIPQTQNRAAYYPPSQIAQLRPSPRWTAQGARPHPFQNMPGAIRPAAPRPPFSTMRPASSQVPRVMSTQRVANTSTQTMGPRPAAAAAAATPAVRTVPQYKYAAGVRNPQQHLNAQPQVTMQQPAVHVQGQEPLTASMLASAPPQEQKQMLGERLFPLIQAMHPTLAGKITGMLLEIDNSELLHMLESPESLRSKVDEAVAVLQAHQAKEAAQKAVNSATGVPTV

Question: Which IC50 does the source give for `CCOC(=O)c1nc(Nc2ccc(C)cc2)c2ccccc2n1` here?
Answer: Its IC50 is > 66 µM (inactive).

Question: With `Cc1nn(C)c(C(=O)NC(=S)Nc2ccc([N+](=O)[O-])cc2)c1Cl` as the compound, how does the IC50 read?
Answer: The IC50 was > 66 µM (inactive).

Question: For `O=C(c1oc2ccccc2c1CSCc1ccccc1)N1CCN(c2ncccn2)CC1`, which IC50 is on record?
Answer: The IC50 was > 66 µM (inactive).

Question: Which IC50 does the source give for `Cc1cc(C)n(N=C(S)NC2CCCC2)c(=O)c1C#N` here?
Answer: The IC50 was > 66 µM (inactive).

Question: With `COc1cccc(C(=O)NC2=NCCS2)c1OC` as the compound, how does the IC50 read?
Answer: Its IC50 is > 66 µM (inactive).

Question: For `COc1ccc(NC(=O)CSc2nnc(-c3ccccc3C)n2N)cc1`, which IC50 is on record?
Answer: Its IC50 is > 66 µM (inactive).

Question: For `OCC(O)CN=C(S)NC1CCCCC1` (centres undefined), which IC50 is on record?
Answer: Its IC50 is > 66 µM (inactive).

target: T1, Polyadenylate-binding protein 1; experiment: PABP1 MLLE–PAM2 binding inhibitor potency, dose response, biochemical, fluorescence polarization, FITC-PAM2 peptide (AID 602259); assay type: functional; conditions: read-out: IC50_Mean

Question: Which IC50 does the source give for `CCOC(=O)c1nc(Nc2ccc(C)cc2)c2ccccc2n1` here?
Answer: The IC50 was > 66 µM (inactive).

Question: Which IC50 does the source give for `Cc1nn(C)c(C(=O)NC(=S)Nc2ccc([N+](=O)[O-])cc2)c1Cl` here?
Answer: Its IC50 is > 66 µM (inactive).

Question: For `O=C(c1oc2ccccc2c1CSCc1ccccc1)N1CCN(c2ncccn2)CC1`, which IC50 is on record?
Answer: Its IC50 is 38.5 µM (inactive).

Question: Which IC50 does the source give for `Cc1cc(C)n(N=C(S)NC2CCCC2)c(=O)c1C#N` here?
Answer: The IC50 was > 66 µM (inactive).

Question: For `COc1cccc(C(=O)NC2=NCCS2)c1OC`, which IC50 is on record?
Answer: The IC50 was > 66 µM (inactive).

Question: With `COc1ccc(NC(=O)CSc2nnc(-c3ccccc3C)n2N)cc1` as the compound, how does the IC50 read?
Answer: The IC50 was > 66 µM (inactive).

Question: Which IC50 does the source give for `OCC(O)CN=C(S)NC1CCCCC1` (centres undefined) here?
Answer: Its IC50 is > 66 µM (inactive).

system: not listed separately; experiment: control 3'UTR Renilla luciferase suppression, dose response, counter-screen for Shn3 inhibitor project, cell-based, Clone20-Shn3RL, cherry-picked (AID 624133); assay type: functional; conditions: not given

Question: For `CC(Cc1cccs1)NC(=O)Nc1ccc(F)cc1` (centres undefined), which AC50 is on record?
Answer: Its AC50 is 28.8 µM (active).

target: T2, Rac GTPase-activating protein 1 (Homo sapiens, UniProt Q9H0H5); experiment: MgcRacGAP GTPase-activating activity inhibitors, confirmation, biochemical, ADP Hunter fluorescence, primary and confirmatory (AID 624330); assay type: functional; conditions: not given
T2 sequence (Q9H0H5 whole entry): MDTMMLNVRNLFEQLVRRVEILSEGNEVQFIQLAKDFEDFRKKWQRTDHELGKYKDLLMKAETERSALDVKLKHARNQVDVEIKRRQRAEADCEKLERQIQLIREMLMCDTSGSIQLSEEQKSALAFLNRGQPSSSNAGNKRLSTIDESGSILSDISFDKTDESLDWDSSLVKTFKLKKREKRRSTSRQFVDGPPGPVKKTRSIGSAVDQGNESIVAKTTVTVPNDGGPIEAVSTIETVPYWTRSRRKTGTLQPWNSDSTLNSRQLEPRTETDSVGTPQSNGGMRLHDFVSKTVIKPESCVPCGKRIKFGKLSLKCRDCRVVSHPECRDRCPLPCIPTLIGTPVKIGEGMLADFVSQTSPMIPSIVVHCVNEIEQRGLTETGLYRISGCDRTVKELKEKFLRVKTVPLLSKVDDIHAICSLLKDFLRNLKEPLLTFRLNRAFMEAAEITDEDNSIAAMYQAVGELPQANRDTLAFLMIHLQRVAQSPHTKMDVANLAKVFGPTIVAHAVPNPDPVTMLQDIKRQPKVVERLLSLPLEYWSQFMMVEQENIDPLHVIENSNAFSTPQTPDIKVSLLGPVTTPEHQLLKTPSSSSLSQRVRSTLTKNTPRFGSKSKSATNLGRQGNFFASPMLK

Question: Which IC50 does the source give for `COc1ccc(N2C(=O)/C(=C/N(C)C)NC2=S)cc1` here?
Answer: Its IC50 is 75.4 µM (active).

Question: With `CCOc1ccccc1Oc1c[nH]nc1-c1ccc(O)cc1O` as the compound, how does the IC50 read?
Answer: The IC50 was 35.5 µM (active).

Question: Which IC50 does the source give for `CSCCO/C(O)=C1/Sc2cc(C)ccc2N=C1C` here?
Answer: Its IC50 is 52.9 µM (active).

Question: With `COc1ccc(N2CCN(S(=O)(=O)c3c(C)nc4scc(C)n4c3=O)CC2)cc1` as the compound, how does the IC50 read?
Answer: The IC50 was 209 µM (active).

Question: For `COc1ccc(CCNCc2cccc(C(F)(F)F)c2)cc1OC`, which IC50 is on record?
Answer: The IC50 was 186 µM (active).

system: not listed separately; experiment: P. falciparum Dd2 growth inhibitors, dose response, SYBR Green, cherry-picked samples (AID 1159567); assay type: functional, cell-based; conditions: not given

Question: Which AC50 does the source give for `CCc1sc(N2[C@@H](C#N)[C@@H](c3ccccc3-c3ccccc3)[C@@H]2CO)nc1C` here?
Answer: Its AC50 is 8.33 µM (active).

Question: With `COc1ccccc1NC(=O)N1CCCCN2[C@@H](CO)[C@H](c3ccc(C#CC4CC4)cc3)[C@@H]2C1` as the compound, how does the AC50 read?
Answer: Its AC50 is 5.48 µM (active).

Question: For `CC(C)(C)[S@@+]([O-])N1Cc2cc(C(=O)NCCN3CCCC3)nc(-c3cccc(-c4ccc(C#N)cc4)c3)c2[C@H]1CCO`, which AC50 is on record?
Answer: The AC50 was 4.66 µM (active).

Question: With `COc1ccc2c3c([nH]c2c1)[C@@H](CO)N(C(=O)c1cccc(F)c1)CC31CCN(C(=O)c2ccccc2)CC1` as the compound, how does the AC50 read?
Answer: The AC50 was 5.71 µM (active).

Question: Which AC50 does the source give for `C[C@@H]1CN([C@H](C)CO)C(=O)c2cc(C#Cc3ccccc3F)cnc2O[C@H]1CN(C)C(=O)c1ccc2c(c1)OCO2` here?
Answer: The AC50 was 3.31 µM (active).
